Data as given in BindingDB's records for doi:10.1016/j.ejmech.2014.09.039 (2014).

Target: Neuronal acetylcholine receptor subunit alpha-7 (Homo sapiens, UniProt P36544)
Test: Positive allosteric modulation at human alpha7 nACHR expressed in Xenopus oocyte assessed as potentiation of ACh-induced current at holding potential of -80 mV measured as ACh EC50 at 1 uM by electrophysiology (Rvb = 176 uM)

Sequence of Neuronal acetylcholine receptor subunit alpha-7 (P36544 whole entry): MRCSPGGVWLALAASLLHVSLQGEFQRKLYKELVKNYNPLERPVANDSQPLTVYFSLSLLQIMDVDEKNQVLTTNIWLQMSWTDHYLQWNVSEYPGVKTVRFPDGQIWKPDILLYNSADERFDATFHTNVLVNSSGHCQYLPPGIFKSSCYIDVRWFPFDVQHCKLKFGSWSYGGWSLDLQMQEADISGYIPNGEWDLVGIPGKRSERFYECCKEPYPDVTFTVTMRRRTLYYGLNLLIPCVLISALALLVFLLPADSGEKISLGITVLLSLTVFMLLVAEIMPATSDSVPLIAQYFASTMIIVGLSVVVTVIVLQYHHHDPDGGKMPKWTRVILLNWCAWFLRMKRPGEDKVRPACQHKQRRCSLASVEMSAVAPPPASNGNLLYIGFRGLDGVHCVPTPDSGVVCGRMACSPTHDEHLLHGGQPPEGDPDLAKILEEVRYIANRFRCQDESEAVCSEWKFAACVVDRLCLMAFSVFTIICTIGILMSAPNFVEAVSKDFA

With `O=C(/C=C/c1ccc(O)cc1)c1cc(O)ccc1O` as the compound, how does the EC50 read?
The EC50 was 56 µM.

With `O=C(/C=C/c1ccc(O)cc1O)c1cc(O)ccc1O` as the compound, how does the EC50 read?
The EC50 was 125 µM.
